The test system of data set [1] is B 697 promyelocytic cell line. Briefly: Cytotoxicity on 697 cell line (CellTiter 96). The class given is cell-based. As to conditions: 72 hours incubation, read-out: 697 TOXICITY
How it is done:
Cytotoxic activity was evaluated on B 697 […] cell line for all synthesized compounds and on peripheral blood mononuclear cells (PBMCs) for compounds showing a good potency/selectivity profile.
Cells were seeded in plate (2×10^4 cells per well for 697, 5×10^5 cells per well for PBMCs). The test compounds (concentrations from 1.5 nM to 10000 nM for PBMCs and from 1 nM to 10000 nM for 697) were added after 24 hours and incubated 72 hours. The molecules cytotoxic activity was evaluated using CellTiter 96© Aqueous One Solution Cell Proliferation Assay (Promega), which measures the mitochondria function, following the manufacturer's instructions.

The target in a further data set is T1, recombinant human HDAC6 (Homo sapiens, UniProt Q9UBN7).
T1 sequence (Q9UBN7 1-1215): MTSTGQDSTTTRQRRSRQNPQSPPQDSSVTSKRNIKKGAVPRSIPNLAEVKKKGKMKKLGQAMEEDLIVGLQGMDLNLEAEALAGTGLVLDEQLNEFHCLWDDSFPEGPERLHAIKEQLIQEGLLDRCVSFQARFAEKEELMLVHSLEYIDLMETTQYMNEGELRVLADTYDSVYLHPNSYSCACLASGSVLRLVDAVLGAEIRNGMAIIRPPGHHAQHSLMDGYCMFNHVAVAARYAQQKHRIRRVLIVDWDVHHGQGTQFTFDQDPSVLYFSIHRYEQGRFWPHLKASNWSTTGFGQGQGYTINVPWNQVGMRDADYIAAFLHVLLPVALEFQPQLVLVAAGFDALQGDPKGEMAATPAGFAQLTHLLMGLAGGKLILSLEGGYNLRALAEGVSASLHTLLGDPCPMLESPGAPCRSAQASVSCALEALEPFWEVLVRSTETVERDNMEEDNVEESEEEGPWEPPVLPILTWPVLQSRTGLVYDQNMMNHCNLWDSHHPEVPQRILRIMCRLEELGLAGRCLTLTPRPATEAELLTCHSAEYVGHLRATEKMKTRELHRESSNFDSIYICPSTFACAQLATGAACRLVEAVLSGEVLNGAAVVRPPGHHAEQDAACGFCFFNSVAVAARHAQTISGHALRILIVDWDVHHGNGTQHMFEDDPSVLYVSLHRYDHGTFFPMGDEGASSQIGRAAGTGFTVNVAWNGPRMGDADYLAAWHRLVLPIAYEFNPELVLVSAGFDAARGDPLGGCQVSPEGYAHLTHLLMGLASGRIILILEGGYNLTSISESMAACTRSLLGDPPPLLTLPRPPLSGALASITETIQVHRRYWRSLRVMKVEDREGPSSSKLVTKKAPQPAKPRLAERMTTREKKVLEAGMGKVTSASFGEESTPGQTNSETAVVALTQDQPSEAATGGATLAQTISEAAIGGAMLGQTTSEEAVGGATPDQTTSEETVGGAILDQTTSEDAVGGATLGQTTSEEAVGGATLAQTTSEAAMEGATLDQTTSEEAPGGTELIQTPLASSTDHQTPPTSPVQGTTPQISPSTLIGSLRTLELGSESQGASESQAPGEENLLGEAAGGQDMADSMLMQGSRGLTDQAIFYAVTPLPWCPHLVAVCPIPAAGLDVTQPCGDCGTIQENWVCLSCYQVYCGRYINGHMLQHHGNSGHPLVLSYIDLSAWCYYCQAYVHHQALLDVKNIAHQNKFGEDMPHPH
Kind of data set: Enzymatic screening on recombinant human HDAC6. The class given is biochemical. The note with it: Table 2; read-out: HDAC6 IC50. The procedure, abridged: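 Buffer for substrate addition: 25 mM Tris-HCl pH 8, 130 mM NaCl, 0.05% Tween-20, 10% glycerol, substrate 2× concentrated (FdL, FdL-Green or trifluoroacetyl-lysine). Recombinant human HDAC was preincubated with compound at 30 °C beforehand, timing isoform-dependent, and the reaction was likewise run at 30 °C.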

Data set [2] in a line: Stability to Phase I metabolism in rat S9 liver fraction. As to conditions: after 90 min, 37° C. Format: in vitro ADME. The procedure, abridged:
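Phase I stability in human and rat hepatic S9 at 37 °C, sampled up to 90 min. Samples were stopped with acidified acetonitrile on ice, then quantified by HPLC-UV or LC-MS/MS.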

A short description of another data set: Stability in rat plasma. Format: in vitro ADME. The note with it: after 4 hours, 37° C. Here is the method:
In order to evaluate the stability to circulating enzymes, test compounds were incubated in human and rat plasma at 37° C. in a thermostated oscillating bath. Each test compound was incubated at μM (50 μM when the samples were analysed by UV/HPLC, 1 or 2 μM when the samples were analysed by LC-MS/MS) concentration for 0, 15, 30 min and 1, 2 and 4 hours. The reaction was stopped placing tubes on ice bath and adding acidified acetonitrile. After centrifugation for 10 minutes at 14000 rpm, an aliquot of the supernatant was diluted with water, filtered with 0.45 μm syringe filters and injected in HPLC-UV or in LC-MS/MS. The percentages of amount remaining at the various times of incubation with respect to initial amount were calculated. The half-life in plasma was also calculated.

pIC50: −log10 of the molar value.

As for `Cn1c(Sc2ccc(C(=O)NO)cc2)nnc1C1CCN(C(=O)OC(C)(C)C)CC1` [comp. 82, tert-butyl 4-[5-[4-(hydroxycarbamoyl)phenyl]sulfanyl-4-methyl-1,2,4-triazol-3-yl]piperidine-1-carboxylate], the figures for the pIC50 (in data set [1]; on recombinant human HDAC6) were 5.19 and 7.57, respectively.

With `O=C(NO)c1ccc(Cn2nnc(-c3ncccn3)n2)cc1` [comp. 123, 4-[(5-pyrimidin-2-yltetrazol-2-yl)methyl]benzenecarbohydroxamic acid], the pIC50 in data set [1] is 5.71; on recombinant human HDAC6, 8.10. In addition, the “residual percentage in rat S9 fraction” value in data set [2] was found to be 99%. In addition, the “residual percentage in rat plasma” value in “Stability in rat plasma” is listed as 99%.

On to `O=C(NO)c1cc(F)c(Cn2nnc(Cc3ccccn3)n2)c(F)c1.O=C(O)C(F)(F)F` [comp. 134, 3,5-difluoro-4-[[5-(2-pyridylmethyl)tetrazol-2-yl]methyl]benzenecarbohydroxamic acid;2,2,2-trifluoroacetic acid], for which the figures for the pIC50 (in data set [1]; at recombinant human HDAC6) were under 5.00 and 8.00, respectively. Moreover, the “residual percentage in rat S9 fraction” value in data set [2] is given as 95%. Moreover, the “residual percentage in rat plasma” value in “Stability in rat plasma” stood at 76%.

Regarding `O=C(O)c1ccc(Cc2nnn(Cc3c(F)cc(C(=O)NO)cc3F)n2)cc1` [comp. 160, 4-[[2-[[2,6-difluoro-4-(hydroxycarbamoyl)phenyl]methyl]tetrazol-5-yl]methyl]benzoic acid], the pIC50 was 4.77 in data set [1] and 6.94 at recombinant human HDAC6.

On to `Cn1c(Sc2c(F)cc(C(=O)NO)cc2F)nnc1-c1ccc2ccccc2n1` [comp. 122, 3,5-difluoro-4-[[4-methyl-5-(2-quinolyl)-1,2,4-triazol-3-yl]sulfanyl]benzenecarbohydroxamic acid], for which the pIC50 is 5.99 in data set [1] and 7.92 at recombinant human HDAC6. For the same compound, the “residual percentage in rat S9 fraction” value in data set [2] is 47%. Besides, the “residual percentage in rat plasma” value in the data set “Stability in rat plasma” is on record as 94%.

For the compound `O=C(NO)c1ccc(Cn2c(Cc3c[nH]c4ccccc34)nnc2-c2cccs2)cc1` [compound 183, 4-((3-((1H-indol-3-yl)methyl)-5-(thiophen-2-yl)-4H-1,2,4-triazol-4-yl)methyl)-N-hydroxybenzamide], the pIC50 in data set [1] is 4.30; at recombinant human HDAC6 it was 6.67.

`Cn1c(Sc2c(F)cc(C(=O)NO)cc2F)nnc1-c1nccc2ccccc12` [comp. 121, 3,5-difluoro-4-[[5-(1-isoquinolyl)-4-methyl-1,2,4-triazol-3-yl]sulfanyl]benzenecarbohydroxamic acid]: the pIC50 in data set [1] was 5.23; on recombinant human HDAC6 it was 7.92. The “residual percentage in rat S9 fraction” value in data set [2] was 25%. In the data set “Stability in rat plasma”, the “residual percentage in rat plasma” value was 100%.

On to `Cn1c(Sc2c(F)cc(C(=O)NO)cc2F)nnc1C1(c2ccccc2)CCN(Cc2ccccc2)CC1` [comp. 150, 4-[[5-(1-benzyl-4-phenyl-4-piperidyl)-4-methyl-1,2,4-triazol-3-yl]sulfanyl]-3,5-difluoro-benzenecarbohydroxamic acid], for which the figures for the pIC50 (in data set [1]; at recombinant human HDAC6) were 5.90 and 7.62, respectively. Moreover, in data set [2], the “residual percentage in rat S9 fraction” value amounted to 35%. The “residual percentage in rat plasma” value in “Stability in rat plasma” is 92%.

Consider `O=C(NO)c1ccc(Cn2nnc(-c3ccco3)n2)cc1` [comp. 12, 4-((5-(furan-2-yl)-2H-tetrazol-2-yl)methyl)-N-hydroxybenzamide], for which the values for the pIC50 (in data set [1]; at recombinant human HDAC6) were under 5.00 and 8.40, respectively. For the same compound, in data set [2], the “residual percentage in rat S9 fraction” value is 44%. Further, the “residual percentage in rat plasma” value in the data set “Stability in rat plasma” came out at 87%.

Turning to `O=C(O)c1ccc(-c2nnn(Cc3ccc(C(=O)NO)cc3)n2)nc1` [comp. 162, 6-[2-[[4-(hydroxycarbamoyl)phenyl]methyl]tetrazol-5-yl]pyridine-3-carboxylic acid], the pIC50 was 4.77 in data set [1] and 6.86 at recombinant human HDAC6.

With `Nc1ccc(-c2nnnn2Cc2ccc(C(=O)NO)cc2)cc1` [comp. 170, 4-[[5-(4-aminophenyl)tetrazol-1-yl]methyl]benzenecarbohydroxamic acid], the pIC50 was 4.21 in data set [1] and 8.10 at recombinant human HDAC6.

`O=C(O)c1ccc(Cc2nnnn2Cc2ccc(C(=O)NO)cc2)cc1` [comp. 159, 4-[[1-[[4-(hydroxycarbamoyl)phenyl]methyl]tetrazol-5-yl]methyl]benzoic acid]: the pIC50 in data set [1] is 4.77; on recombinant human HDAC6 it was 5.86.

Turning to `O=C(NO)c1cc(F)c(Sc2nnc(-c3ccncc3)n2Cc2ccco2)c(F)c1` [comp. 146, 3,5-difluoro-4-[[4-(2-furylmethyl)-5-(4-pyridyl)-1,2,4-triazol-3-yl]sulfanyl]benzenecarbohydroxamic acid], the figures for the pIC50 (in data set [1]; at recombinant human HDAC6) were under 5.00 and 7.70, respectively. Besides, in data set [2], the “residual percentage in rat S9 fraction” value is recorded as 59%.

In the case of `Cn1c(Sc2c(F)cc(C(=O)NO)cc2F)nnc1-c1cnc2ccccn12` [comp. 149, 3,5-difluoro-4-[(5-imidazo[1,2-a]pyridin-3-yl-4-methyl-1,2,4-triazol-3-yl)sulfanyl]benzenecarbohydroxamic acid], the values for the pIC50 (in data set [1]; on recombinant human HDAC6) were 6.10 and 7.96, respectively. For the same compound, in data set [2], the “residual percentage in rat S9 fraction” value is reported as 84%.

In the case of `COC(=O)c1ccc(Cc2nnnn2Cc2c(F)cc(C(=O)NO)cc2F)cc1` [comp. 155, methyl 4-[[1-[[2,6-difluoro-4-(hydroxycarbamoyl)phenyl]methyl]tetrazol-5-yl]methyl]benzoate], the pIC50 was 4.64 in data set [1] and 6.76 on recombinant human HDAC6.

`NCc1ccc(-c2nnnn2Cc2ccc(C(=O)NO)cc2)cc1` [comp. 174, 4-[[5-[4-(aminomethyl)phenyl]tetrazol-1-yl]methyl]benzenecarbohydroxamic acid]: the pIC50 in data set [1] was 4.30; at recombinant human HDAC6, 6.89.

As to `O=C(O)c1ccc(Cc2nnn(Cc3ccc(C(=O)NO)cc3)n2)cc1` [comp. 158, 4-[[2-[[4-(hydroxycarbamoyl)phenyl]methyl]tetrazol-5-yl]methyl]benzoic acid], the values for the pIC50 (in data set [1]; at recombinant human HDAC6) were 4.77 and 6.64, respectively.

For the compound `COc1ccc(Cc2nnc(-c3cccs3)n2Cc2ccc(C(=O)NO)cc2)cc1OC` [comp. 185, 4-[[3-[(3,4-dimethoxyphenyl)methyl]-5-(2-thienyl)-1,2,4-triazol-4-yl]methyl]benzenecarbohydroxamic acid], the results for the pIC50 (in data set [1]; at recombinant human HDAC6) were 4.98 and 6.00, respectively.

`O=C(O)c1ccc(Cc2nnnn2Cc2c(F)cc(C(=O)NO)cc2F)cc1` [comp. 161, 4-[[1-[[2,6-difluoro-4-(hydroxycarbamoyl)phenyl]methyl]tetrazol-5-yl]methyl]benzoic acid]: the results for the pIC50 (in data set [1]; on recombinant human HDAC6) were 4.77 and 6.49, respectively.

As for `O=C(O)c1cccc(-c2nnn(Cc3ccc(C(=O)NO)cc3)n2)c1` [comp. 163, 3-[2-[[4-(hydroxycarbamoyl)phenyl]methyl]tetrazol-5-yl]benzoic acid], the pIC50 in data set [1] was 4.31; on recombinant human HDAC6, 7.92.

For the origin of these results see patent US11351178B2, “Selective HDAC6 inhibitors” (ITALFARMACO S.P.A., priority 2017, dated 2022).
